Measurements from patent US11319315B2, “Cyclohexyl acid triazole azoles as LPA antagonists” (BRISTOL-MYERS SQUIBB COMPANY, priority 2017, dated 2022).
Counter-ions that a name gives are not always drawn. Like-named read-outs stand apart in the source and are kept apart here.

Target: T1, human LPA1 (Homo sapiens, UniProt Q92633)
T1 construct: expressed in transfected cells; host or cells: Chinese hamster ovary (CHO) cells
Test: LPA1 functional antagonist assay (LPA-induced calcium flux in CHO cells overexpressing human LPA1)
Assay type: cell-based
Details: read-out: hLPA1 IC50
Method in brief: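 Calcium flux was triggered by 10 nM LPA after 20 min room-temperature compound pre-incubation (final 0.08 nM to 5 μM, 0.5% DMSO) in human LPA1-overexpressing CHO cells carrying calcium dye. Buffer: HBSS with Ca/Mg, 20 mM HEPES, 0.1% fatty-acid-free BSA; IC50s from 4-parameter logistic fits.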

[1] = inhibition of calcium flux induced by 10 nM LPA, CHO cells overexpressing human LPA1

T1 sequence (Q92633 whole entry): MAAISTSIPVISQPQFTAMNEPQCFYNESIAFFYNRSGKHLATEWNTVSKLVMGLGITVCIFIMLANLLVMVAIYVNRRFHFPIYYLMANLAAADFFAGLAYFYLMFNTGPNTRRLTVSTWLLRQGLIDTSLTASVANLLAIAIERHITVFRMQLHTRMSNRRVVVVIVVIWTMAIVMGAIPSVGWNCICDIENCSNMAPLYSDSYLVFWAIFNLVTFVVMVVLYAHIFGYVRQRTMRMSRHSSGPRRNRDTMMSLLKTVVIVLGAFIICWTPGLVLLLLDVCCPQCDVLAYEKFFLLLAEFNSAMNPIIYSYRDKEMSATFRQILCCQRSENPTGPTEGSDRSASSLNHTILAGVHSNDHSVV

| SMILES | IC50 | IC50 [1] |
| --- | --- | --- |
| Cc1nc(-c2nnn(C)c2CNc2ncn(Cc3ccccc3)n2)ccc1O[C@H]1CCC[C@H](C(=O)O)C1 [Example 34] |  | 332 nM |
| Cc1nc(-c2nnn(C)c2CNc2noc(CCC(C)(C)F)n2)ccc1O[C@H]1CCC[C@H](C(=O)O)C1 [Example 179] |  | 43.5 nM |
| Cc1nc(-c2nnn(C)c2CNc2nnn(CC3CC3)n2)ccc1O[C@H]1CCC[C@H](C(=O)O)C1 [Example 386, (1S,3S)-3-((6-(5-(((2-(cyclopropyl-methyl)-2H-tetrazol-5-yl)amino)methyl)-1-methyl-1H-1,2,3-triazol-4-yl)-2-methylpyridin-3-yl)oxy)cyclohexane-1-carboxylic acid] | 26 nM |  |
| CCCOc1nnn(Cc2c(-c3ccc(O[C@H]4CCC[C@@H](C(=O)O)C4)c(C)n3)nnn2C)n1 [Example 347, (1R,3S)-3-[(2-methyl-6-{1-methyl-5-[(5-propoxy-2H-1,2,3,4-tetrazol-2-yl)methyl]-1H-1,2,3-triazol-4-yl}pyridin-3-yl)oxy]cyclohexane-1-carboxylic acid] |  | 270 nM |
| Cc1nc(-c2nnn(C)c2COc2cc(-c3ccccn3)on2)ccc1O[C@H]1CCC[C@H](C(=O)O)C1 [Example 133] |  | 208 nM |
| CCCOCc1nnn(Cc2c(-c3ccc(O[C@H]4CCC[C@H](C(=O)O)C4)c(C)n3)nnn2C)n1 [Example 302, (1S,3S)-3-{[2-methyl-6-(1-methyl-5-{[5-(propoxymethyl)-2H-1,2,3,4-tetrazol-2-yl]methyl}-1H-1,2,3-triazol-4-yl)pyridin-3-yl]oxy}cyclohexane-1-carboxylic acid] |  | 63 nM |
| Cc1nc(-c2nnn(C)c2COc2noc(CC3CC3)n2)ccc1O[C@H]1CCC[C@H](C(=O)O)C1 [Example 117, (1S,3S)-3-((6-(5-(((5-(cyclopropylmethyl)-1,2,4-oxadiazol-3-yl)oxy)methyl)-1-methyl-1H-1,2,3-triazol-4-yl)-2-methylpyridin-3-yl)oxy)cyclohexane-1-carboxylic acid] |  | 11 nM |
| Cc1nc(-c2nnn(C)c2Cn2nnc(OCC3CCC3)n2)ccc1O[C@H]1CCC[C@H](C(=O)O)C1 [Example 332, (1S,3S)-3-{[6-(5-{[5-(cyclobutyl-methoxy)-2H-1,2,3,4-tetrazol-2-yl]methyl}-1-methyl-1H-1,2,3-triazol-4-yl)-2-methylpyridin-3-yl]oxy}cyclohexane-1-carboxylic acid] |  | 30 nM |
| Cc1nc(-c2nnn(C)c2COc2nnn(CC3CC3)n2)ccc1O[C@H]1CCC[C@H](C(=O)O)C1 [Example 143] |  | 24 nM |
| CCCCc1nc(NCc2c(-c3nc(C)c(O[C@H]4CCC[C@H](C(=O)O)C4)cc3F)nnn2C)no1 [Example 280, (1S,3S)-3-((6-(5-(((5-butyl-1,2,4-oxadiazol-3-yl)amino)methyl)-1-methyl-1H-1,2,3-triazol-4-yl)-5-fluoro-2-methylpyridin-3-yl)oxy)cyclohexane-1-carboxylic acid] |  | 143 nM |
| Cc1nc(-c2nnn(C)c2CNc2ncc(C(C)C)o2)ccc1O[C@H]1CCC[C@H](C(=O)O)C1 [Example 139] |  | 38 nM |
| Cc1nc(-c2nnn(C)c2CNc2noc(C(C)C3CC3)n2)ccc1O[C@H]1CCC[C@H](C(=O)O)C1 (stereo partly drawn) [Example 193] |  | 33 nM |
| Cn1nnc(-c2ccc(O[C@H]3CCC[C@H](C(=O)O)C3)cn2)c1CNc1noc(C2CCCC2)n1 [Example 289, (1S,3S)-3-((6-(5-(((5-cyclopentyl-1,2,4-oxadiazol-3-yl)amino)methyl)-1-methyl-1H-1,2,3-triazol-4-yl)pyridin-3-yl)oxy)cyclohexane-1-carboxylic acid] |  | 50.7 nM |
| COCCCCCOc1nnn(Cc2c(-c3ccc(O[C@H]4CCC[C@H](C(=O)O)C4)c(C)n3)nnn2C)n1 [Example 406, (1S,3S)-3-({6-[5-({5-[(5-methoxy-pentyl)oxy]-2H-1,2,3,4-tetrazol-2-yl}methyl)-1-methyl-1H-1,2,3-triazol-4-yl]-2-methylpyridin-3-yl}oxy)cyclohexane-1-carboxylic acid] | 681 nM |  |
| CCCCc1nc(Nc2c(-c3ccc(O[C@H]4CCC[C@H](C(=O)O)C4)c(C)n3)nnn2C)no1 [Example 275, (1 S,3 S)-3-((6-(5-((5-Butyl-1,2,4-oxadiazol-3-yl)amino)-1-methyl-1H-1,2,3-triazol-4-yl)-2-methylpyridin-3-yl)oxy)cyclohexane-1-carboxylic acid, 2 TFA salt] |  | 18 nM |
| Cc1nc(-c2nnn(C)c2CNc2nnn(CC(C)C)n2)ccc1O[C@H]1CCC[C@H](C(=O)O)C1 [Example 388, (1S,3S)-3-((6-(5-(((2-isobutyl-2H-tetrazol-5-yl)amino)methyl)-1-methyl-1H-1,2,3-triazol-4-yl)-2-methylpyridin-3-yl)oxy)cyclo-hexane-1-carboxylic acid] | 43 nM |  |
| CCc1nsc(NCc2c(-c3ccc(O[C@H]4CCC[C@H](C(=O)O)C4)c(C)n3)nnn2C)n1 [Example 118] |  | 919 nM |
| Cc1nc(-c2nnn(C)c2CNc2noc(CCC3CCC3)n2)c(F)cc1O[C@H]1CCC[C@H](C(=O)O)C1 [Example 278, (1S,3S)-3-((6-(5-(((5-(2-cyclobutylethyl)-1,2,4-oxadiazol-3-yl)amino)methyl)-1-methyl-1H-1,2,3-triazol-4-yl)-5-fluoro-2-methylpyridin-3-yl)oxy)cyclohexane-1-carboxylic acid] |  | 30 nM |
| CCCCc1nnn(Cc2c(-c3ccc(O[C@H]4CCC[C@H](C(=O)O)C4)cn3)nnn2C)n1 [Example 257, (1S,3S)-3-((6-(5-((5-butyl-2H-tetrazol-2-yl)methyl)-1-methyl-1H-1,2,3-triazol-4-yl)pyridin-3-yl)oxy)cyclohexane-1-carboxylic acid] |  | 12.5 nM |
| Cc1nc(-c2nnn(C)c2CNc2nnc(C3CCCC3)o2)ccc1O[C@H]1CCC[C@H](C(=O)O)C1 [Example 48] |  | 209 nM |
| Cc1cccc(-n2nnc(NCc3c(-c4ccc(O[C@H]5CCC[C@H](C(=O)O)C5)c(C)n4)nnn3C)n2)c1 [Example 380, (1S,3S)-3-((2-methyl-6-(1-methyl-5-(((2-(m-tolyl)-2H-tetrazol-5-yl)amino)methyl)-1H-1,2,3-triazol-4-yl)pyridin-3-yl)oxy)cyclohexane-1-carboxylic acid] | 183 nM |  |
| Cn1nnc(-c2ccc(O[C@H]3CCC[C@H](C(=O)O)C3)cn2)c1Cn1nnc(C2CCCC2)n1 [Example 259, (1S,3S)-3-((6-(5-((5-cyclopentyl-2H-tetrazol-2-yl)methyl)-1-methyl-1H-1,2,3-triazol-4-yl)pyridin-3-yl)oxy)cyclohexane-1-carboxylic acid] |  | 31 nM |

Results, then the compound that gave them:

| IC50 | IC50 [1] | SMILES |
| --- | --- | --- |
| 43 nM |  | CCCCn1nnc(Cc2c(-c3ccc(O[C@H]4CCC[C@H](C(=O)O)C4)c(C)n3)nnn2C)n1 [Example 366, (1S,3S)-3-((6-(5-((2-butyl-2H-tetrazol-5-yl)methyl)-1-methyl-1H-1,2,3-triazol-4-yl)-2-methylpyridin-3-yl)oxy)cyclohexane-1-carboxylic acid] |
|  | 42 nM | Cc1nc(-c2nnn(C)c2CNc2noc(CCC(C)(F)F)n2)ccc1O[C@H]1CCC[C@H](C(=O)O)C1 [Example 188] |
|  | 124 nM | Cc1nc(-c2nnn(C)c2Cn2nnnc2COc2ccccc2)ccc1O[C@H]1CCC[C@H](C(=O)O)C1 [Example 304, (1S,3S)-3-{[2-methyl-6-(1-methyl-5-{[5-(phenoxymethyl)-1H-1,2,3,4-tetrazol-1-yl]methyl}-1H-1,2,3-triazol-4-yl)pyridin-3-yl]oxy}cyclohexane-1-carboxylic acid] |
|  | 951 nM | Cc1ccn(Cc2nnnn2Cc2c(-c3ccc(O[C@H]4CCC[C@H](C(=O)O)C4)c(C)n3)nnn2C)n1 [Example 303, (1S,3S)-3-({2-methyl-6-[1-methyl-5-({5-[(3-methyl-1H-pyrazol-1-yl)methyl]-1H-1,2,3,4-tetrazol-1-yl}methyl)-1H-1,2,3-triazol-4-yl]pyridin-3-yl}oxy)cyclohexane-1-carboxylic acid] |
|  | 7 nM | CCc1nc(-c2nnn(C)c2Cn2cc(Cc3ccccc3)nn2)ccc1O[C@H]1CCC[C@H](C(=O)O)C1 [Example 95] |
|  | 76 nM | CCCCc1noc(NCc2c(-c3ccc(O[C@H]4CCC[C@H](C(=O)O)C4)c(C)n3)nnn2C)n1 [Example 43, (1S,3S)-3-((6-(5-(((3-Butyl-1,2,4-oxadiazol-5-yl)amino)methyl)-1-methyl-1H-1,2,3-triazol-4-yl)-2-methylpyridin-3-yl)oxy)cyclohexane-1-carboxylic acid, bis TFA salt] |
|  | 63 nM | CCCO[C@H](C)c1nc(NCc2c(-c3ccc(O[C@H]4CCC[C@H](C(=O)O)C4)c(C)n3)nnn2C)no1 [Example 219, (1S,3S)-3-((2-methyl-6-(1-methyl-5-(((5-((R)-1-propoxyethyl)-1,2,4-oxadiazol-3-yl)amino)methyl)-1H-1,2,3-triazol-4-yl)pyridin-3-yl)oxy)cyclohexane-1-carboxylic acid] |
|  | 37 nM | Cc1nc(-c2nnn(C)c2Cn2cc(Cc3ccccc3)nn2)ccc1O[C@H]1CCC[C@H](C(=O)O)C1 [Example 81] |
|  | 435 nM | Cc1nc(-c2nnn(C)c2CNc2cn(CC(C)C)nn2)ccc1O[C@H]1CCC[C@H](C(=O)O)C1 [Example 23, (1 S,3 S)-3-((6-(5-(((1-isobutyl-1H-1,2,3-triazol-4-yl)amino)methyl)-1-methyl-1H-1,2,3-triazol-4-yl)-2-methylpyridin-3-yl)oxy)cyclohexane-1-carboxylic acid] |
|  | 25 nM | Cc1nc(-c2nnn(C)c2COc2noc(C3CC3)n2)ccc1O[C@H]1CCC[C@H](C(=O)O)C1 [Example 134] |
|  | 236 nM | Cc1nc(-c2nnn(C)c2CNc2noc(CC3CC3)n2)c(F)cc1O[C@H]1CCC[C@H](C(=O)O)C1 [Example 282, (1S,3S)-3-((6-(5-(((5-(cyclopropylmethyl)-1,2,4-oxadiazol-3-yl)amino)methyl)-1-methyl-1H-1,2,3-triazol-4-yl)-5-fluoro-2-methylpyridin-3-yl)oxy)cyclohexane-1-carboxylic acid] |
